Tests used:
Δ382C (DDase-Δ382C) [1] = biological target: T1, Δ382C (DDase-Δ382C) (Gluconobacter oxydans, UniProt A0A0M5MSC0, E858S); experiment: glycosynthase reaction, isomaltotetraose formation by HPAEC-PAD; format: biochemical; details: 12.5 mM donor, 50 mM isomaltotriose acceptor, 130 mM sodium acetate pH 4.2, 35 °C
T1 construct: gene HKD20_12845; C-terminal truncation Met1-Ser902 (domains N1, N2, HLH, A); N-terminal His6 tag (MNHKVHHHHHHIEGRHMEL) kept; E. coli BL21-CodonPlus(DE3)-RIL; 921 residues with tag; dimer 195,604 Da
T1 sequence (A0A0M5MSC0 entry or part of it E858S): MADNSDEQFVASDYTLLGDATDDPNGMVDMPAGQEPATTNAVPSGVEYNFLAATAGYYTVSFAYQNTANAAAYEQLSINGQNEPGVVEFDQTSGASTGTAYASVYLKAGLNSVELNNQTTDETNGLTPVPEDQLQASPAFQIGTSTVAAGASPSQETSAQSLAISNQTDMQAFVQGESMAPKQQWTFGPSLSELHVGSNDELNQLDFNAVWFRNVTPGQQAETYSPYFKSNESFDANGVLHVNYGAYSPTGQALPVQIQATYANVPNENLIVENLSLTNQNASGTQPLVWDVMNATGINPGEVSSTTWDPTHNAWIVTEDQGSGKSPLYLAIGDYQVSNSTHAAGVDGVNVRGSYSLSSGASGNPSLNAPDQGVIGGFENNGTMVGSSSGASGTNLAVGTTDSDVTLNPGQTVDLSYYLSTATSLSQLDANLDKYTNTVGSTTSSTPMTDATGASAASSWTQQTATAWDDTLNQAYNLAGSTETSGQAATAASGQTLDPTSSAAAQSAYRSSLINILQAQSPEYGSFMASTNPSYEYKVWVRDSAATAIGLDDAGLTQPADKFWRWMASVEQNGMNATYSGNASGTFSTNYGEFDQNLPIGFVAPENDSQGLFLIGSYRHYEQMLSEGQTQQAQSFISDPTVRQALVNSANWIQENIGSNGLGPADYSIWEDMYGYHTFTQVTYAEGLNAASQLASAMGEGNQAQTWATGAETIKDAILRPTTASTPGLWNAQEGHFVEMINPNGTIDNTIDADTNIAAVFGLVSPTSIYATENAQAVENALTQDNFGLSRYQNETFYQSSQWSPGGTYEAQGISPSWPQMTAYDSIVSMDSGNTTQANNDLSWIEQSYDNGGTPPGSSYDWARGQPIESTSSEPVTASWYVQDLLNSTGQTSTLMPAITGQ

Δ382C (DDase-Δ382C) [2] = biological target: T2, Δ382C (DDase-Δ382C) (Gluconobacter oxydans, UniProt A0A0M5MSC0, E858A); experiment: as above; format: biochemical; details: 12.5 mM donor, 50 mM isomaltotriose acceptor, 130 mM sodium acetate pH 4.2, 35 °C
T2 construct: gene HKD20_12845; C-terminal truncation Met1-Ser902 (domains N1, N2, HLH, A); N-terminal His6 tag (MNHKVHHHHHHIEGRHMEL) kept; E. coli BL21-CodonPlus(DE3)-RIL; 921 residues with tag; dimer 195,604 Da
T2 sequence (A0A0M5MSC0 entry or part of it E858A): as the sequence (A0A0M5MSC0 entry or part of it E858S) above, with S858A counted along it

In the case of `OC[C@H]1O[C@@H](F)[C@H](O)[C@@H](O)[C@@H]1O` [β-GF, β-D-glucosyl fluoride], the “glycosynthase reaction, isomaltotetraose formation by HPAEC-PAD” value (Δ382C (DDase-Δ382C) [1]) is reported as “isomaltotetraose (IG4) was produced from β-D-glucosyl fluoride (β-GF) and IG3 by E858A and E858S” and the “glycosynthase reaction, isomaltotetraose formation by HPAEC-PAD” value (Δ382C (DDase-Δ382C) [2]) is reported as “isomaltotetraose (IG4) was produced from β-D-glucosyl fluoride (β-GF) and IG3 by E858A and E858S”.
